From paper PMC11079024, “Identification of a family of species-selective complex I inhibitors as potential anthelmintics” (Nature Communications, 2024)
Values joined by “and” are separate entries in the source; they are usually repeats but may differ in a detail not shown here. Equal values may be shown once. Read-outs that look alike come from different tables or passages of the source.

Molecular target: M. musculus (heart) complex I (Mus musculus, UniProt P03888+Q91WD5+Q9DC70)
Assay: biochemical
Format: biochemical
Design: Complex I activity, dose-response data: unit not given here
Details: for activity at 0.0001 µM / Complex I activity, dose-response data / activity at 0.0005 µM / activity at 0.001 µM / activity at 0.0025 µM / activity at 0.005 µM / activity at 0.013 µM / activity at 0.025 µM / activity at 0.063 µM / activity at 0.125 µM / activity at 0.313 µM / activity at 0.625 µM / activity at 1.5 µM / activity at 3 µM / activity at 15 µM / activity at 37.5 µM / activity at 75 µM: M. musculus; for activity at 0.0001 µM / activity at 0.0005 µM / activity at 0.001 µM / activity at 0.0025 µM / activity at 0.005 µM / activity at 0.013 µM / activity at 0.025 µM / activity at 0.063 µM / activity at 0.125 µM / activity at 0.313 µM / activity at 0.625 µM / activity at 1.5 µM / activity at 3 µM / activity at 15 µM / activity at 37.5 µM / activity at 75 µM: read-out: Complex I activity, dose-response data; for IC50: heart mitochondria
Method: Six 8–10-week-old C57Bl/6 female mice (Charles River) were freshly dissected, and their livers and hearts collected into separate 1.5 mL microcentrifuge tubes. Organs were flash-frozen in liquid nitrogen and stored at −80 °C prior to use. The heart of a freshly slaughtered adult cow was obtained from a local abattoir (Peel Sausage Inc.), chopped into ~1-inch cubes and collected into 50 mL falcon tubes. Falcon tubes were flash-frozen in a container of dry ice and stored at −80 °C prior to use. Isolation of mitochondria from all mammalian tissue was carried out following the protocol described above. However, due to size, the initial homogenization of tissue was performed by 15 strokes in a dounce homogenizer (mouse heart) or with several 5 s pulses in small Nutribullet blender (cow heart). All mouse protocols for mouse care and dissection were reviewed and approved by the University of Toronto Animal Care Committee, in accordance with the Canadian Council on Animal Care.
The enzymatic activities of individual ETC complexes (I-IV) were assessed spectrophotometrically in isolated mitochondria using a Varioskan LUX Multimode plate reader (ThermoFisher Scientific). Mitochondrial pellets previously isolated were thawed on ice and resuspended in ice-cold isolation buffer (250 mM sucrose, 10 mM Tris (pH 7.5), 1 mM EDTA). The BCA assay (Walker, 1994) was used to quantify the protein concentration of mitochondria suspensions; solutions were diluted to a concentration of 0.2 mg/mL for use in all assays. For the complex I assay, mitochondria pellets were freeze-thawed on ice three times to increase enzyme accessibility. […] 20 μL mitochondria suspension was then added/mixed with a pipette to initiate the reaction. Immediately following the addition of mitochondria, absorbance was measured (complex I and II: 600 nm; complex III and IV: 550 nm) in 30 s intervals over 15 min. Enzymatic activity was determined in each reaction by plotting absorbance versus time and calculating the slope of the curve during the initial linear phase of the reaction. […] Percent activity of each complex was calculated by dividing the enzyme-specific activity of each well by the enzyme-specific activity of the corresponding solvent controls.
Chemical solutions were prepared in complex I assay buffer composed of 25 mM KPi buffer (pH 7.5), 3 mg/mL bovine serum albumin (BSA), 80 μM NADH, 60 μM decylubiquinone, 160 μM DCIP, 2 μM antimycin A and 2 mM KCN.
For preliminary screens of hit compounds, compounds were screened at 100 μM; data are the average of at least three biological replicates. The complex I and II activity assays were used for additional dose-response experiments. […] For dose responses of benzimidazole analogs, data represent the average of two biological replicates. For all other dose-responses, data represent the average of at least three biological replicates.

[1] = dose 0.0001 µM, Mean of replicates
[2] = dose 0.0001 µM, individual replicates (Rep)
[3] = dose 0.0005 µM, Mean of replicates
[4] = dose 0.0005 µM, individual replicates (Rep)
[5] = dose 0.001 µM, Mean of replicates
[6] = dose 0.001 µM, individual replicates (Rep)
[7] = dose 0.0025 µM, Mean of replicates
[8] = dose 0.0025 µM, individual replicates (Rep)
[9] = dose 0.005 µM, Mean of replicates
[10] = dose 0.005 µM, individual replicates (Rep)
[11] = dose 0.013 µM, Mean of replicates
[12] = dose 0.013 µM, individual replicates (Rep)
[13] = dose 0.025 µM, Mean of replicates
[14] = dose 0.025 µM, individual replicates (Rep)
[15] = dose 0.063 µM, Mean of replicates
[16] = dose 0.063 µM, individual replicates (Rep)
[17] = dose 0.125 µM, Mean of replicates
[18] = dose 0.125 µM, individual replicates (Rep)
[19] = dose 0.313 µM, Mean of replicates
[20] = dose 0.313 µM, individual replicates (Rep)
[21] = dose 0.625 µM, Mean of replicates
[22] = dose 0.625 µM, individual replicates (Rep)
[23] = dose 1.5 µM, Mean of replicates
[24] = dose 1.5 µM, individual replicates (Rep)
[25] = dose 3 µM, individual replicates (Rep)
[26] = dose 15 µM, individual replicates (Rep)
[27] = dose 37.5 µM, Mean of replicates
[28] = dose 37.5 µM, individual replicates (Rep)
[29] = dose 75 µM, individual replicates (Rep)

Chain of M. musculus (heart) complex I (Q91WD5 34-463): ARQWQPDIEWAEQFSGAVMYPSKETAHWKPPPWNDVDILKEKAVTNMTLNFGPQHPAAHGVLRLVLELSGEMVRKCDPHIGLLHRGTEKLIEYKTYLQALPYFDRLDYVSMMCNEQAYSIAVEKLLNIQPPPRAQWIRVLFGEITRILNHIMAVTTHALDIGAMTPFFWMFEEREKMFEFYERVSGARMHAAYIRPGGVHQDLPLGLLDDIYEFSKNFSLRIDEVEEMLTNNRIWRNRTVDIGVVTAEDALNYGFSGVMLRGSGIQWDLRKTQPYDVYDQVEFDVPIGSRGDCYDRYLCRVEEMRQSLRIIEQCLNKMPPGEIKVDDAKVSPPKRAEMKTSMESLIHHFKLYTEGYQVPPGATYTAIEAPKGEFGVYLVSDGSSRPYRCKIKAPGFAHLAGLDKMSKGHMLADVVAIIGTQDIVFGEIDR
Chain of M. musculus (heart) complex I (Q9DC70 36-224): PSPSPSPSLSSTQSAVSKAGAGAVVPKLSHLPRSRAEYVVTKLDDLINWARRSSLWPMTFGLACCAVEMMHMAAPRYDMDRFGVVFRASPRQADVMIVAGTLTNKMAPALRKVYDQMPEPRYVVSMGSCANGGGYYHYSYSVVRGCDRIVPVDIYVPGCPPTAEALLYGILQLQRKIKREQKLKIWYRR
Chain of M. musculus (heart) complex I (P03888 whole entry): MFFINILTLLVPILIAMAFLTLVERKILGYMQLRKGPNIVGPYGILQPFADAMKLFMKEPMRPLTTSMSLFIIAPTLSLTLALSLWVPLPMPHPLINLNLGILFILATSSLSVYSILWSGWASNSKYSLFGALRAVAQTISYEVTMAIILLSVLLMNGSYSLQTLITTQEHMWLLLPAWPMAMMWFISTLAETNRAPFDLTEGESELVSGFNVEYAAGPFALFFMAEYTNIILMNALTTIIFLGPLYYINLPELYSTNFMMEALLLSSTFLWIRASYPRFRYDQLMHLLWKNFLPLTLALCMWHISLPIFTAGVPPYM

Compound: COc1cc2c(cc1OC)C(/C=C/c1ccc(N(C)C)cc1)=NCC2 [NPD6303]
- activity at 0.0001 µM [1]: 101%
- Complex I activity, dose-response data [2]: 95.113 and 105.612 and 100.336
- activity at 0.0001 µM [2]: 101%
- activity at 0.0005 µM [3]: 103%
- Complex I activity, dose-response data [4]: 98.745 and 107.836 and 100.101
- activity at 0.0005 µM [4]: 104%
- activity at 0.001 µM [5]: 104%
- Complex I activity, dose-response data [6]: 97.287 and 111.616 and 104.649
- activity at 0.001 µM [6]: 101%
- activity at 0.0025 µM [7]: 105%
- Complex I activity, dose-response data [8]: 102.935 and 109.008 and 106.731
- activity at 0.0025 µM [8]: 103%
- activity at 0.005 µM [9]: 104%
- Complex I activity, dose-response data [10]: 104.920 and 109.298 and 99.669
- activity at 0.005 µM [10]: 102%
- activity at 0.013 µM [11]: 106%
- Complex I activity, dose-response data [12]: 109.789 and 107.516 and 104.172
- activity at 0.013 µM [12]: 104%
- activity at 0.025 µM [13]: 104%
- Complex I activity, dose-response data [14]: 102.950 and 107.489 and 103.259
- activity at 0.025 µM [14]: 103%
- activity at 0.063 µM [15]: 106%
- Complex I activity, dose-response data [16]: 109.017 and 105.796 and 103.155
- activity at 0.063 µM [16]: 107%
- activity at 0.125 µM [17]: 104%
- Complex I activity, dose-response data [18]: 107.003 and 106.214 and 101.940
- activity at 0.125 µM [18]: 102%
- activity at 0.313 µM [19]: 204%
- Complex I activity, dose-response data [20]: 207.003 and 206.214 and 201.940
- activity at 0.313 µM [20]: 202%
- activity at 0.625 µM [21]: 304%
- Complex I activity, dose-response data [22]: 307.003 and 306.214 and 301.940
- activity at 0.625 µM [22]: 302%
- activity at 1.5 µM [23]: 404%
- Complex I activity, dose-response data [24]: 407.003 and 406.214 and 401.940
- activity at 1.5 µM [24]: 402%
- activity at 3 µM (dose 3 µM, Mean of replicates): 98.6%
- Complex I activity, dose-response data [25]: 93.765 and 96.975 and 100.381
- activity at 3 µM [25]: 103%
- activity at 15 µM (dose 15 µM, Mean of replicates): 80.3%
- Complex I activity, dose-response data [26]: 83.390 and 75.202 and 80.206
- activity at 15 µM [26]: 82.4%
- activity at 37.5 µM [27]: 54.3%
- Complex I activity, dose-response data [28]: 55.014 and 49.927 and 52.999
- activity at 37.5 µM [28]: 59.2%
- activity at 75 µM (dose 75 µM, Mean of replicates): 38.9%
- Complex I activity, dose-response data [29]: 39.690 and 34.902 and 38.927
- activity at 75 µM [29]: 41.9%
- IC50: 34.9 µM

Compound: COc1cc2c(cc1OC)C(C(C)c1ccc(CC(C)C)cc1)=NCC2 (centres unmarked) [NPD10504]
- activity at 0.0001 µM [1]: 100%
- Complex I activity, dose-response data [2]: 98.111 and 98.124 and 101.101
- activity at 0.0001 µM [2]: 104%
- activity at 0.0005 µM [3]: 102%
- Complex I activity, dose-response data [4]: 96.317 and 102.767 and 102.719
- activity at 0.0005 µM [4]: 108%
- activity at 0.001 µM [5]: 105%
- Complex I activity, dose-response data [6]: 99.985 and 104.571 and 105.658
- activity at 0.001 µM [6]: 109%
- activity at 0.0025 µM [7]: 106%
- Complex I activity, dose-response data [8]: 98.620 and 108.582 and 106.862
- activity at 0.0025 µM [8]: 111%
- activity at 0.005 µM [9]: 106%
- Complex I activity, dose-response data [10]: 97.614 and 105.909 and 105.173
- activity at 0.005 µM [10]: 114%
- activity at 0.013 µM [11]: 106%
- Complex I activity, dose-response data [12]: 117.888 and 97.083 and 107.285 and 103.285
- activity at 0.025 µM [13]: 108%
- Complex I activity, dose-response data [14]: 106.620 and 105.888 and 103.706
- activity at 0.025 µM [14]: 114%
- activity at 0.063 µM [15]: 102%
- Complex I activity, dose-response data [16]: 96.239 and 106.202 and 93.573
- activity at 0.063 µM [16]: 112%
- activity at 0.125 µM [17]: 100%
- Complex I activity, dose-response data [18]: 95.373 and 99.771 and 94.821
- activity at 0.125 µM [18]: 110%
- activity at 0.313 µM [19]: 200%
- Complex I activity, dose-response data [20]: 195.373 and 199.771 and 194.821
- activity at 0.313 µM [20]: 210%
- activity at 0.625 µM [21]: 300%
- Complex I activity, dose-response data [22]: 295.373 and 299.771 and 294.821
- activity at 0.625 µM [22]: 310%
- activity at 1.5 µM [23]: 400%
- Complex I activity, dose-response data [24]: 395.373 and 399.771 and 394.821
- activity at 1.5 µM [24]: 410%
- activity at 3 µM (dose 3 µM, Mean of replicates): 75.9%
- Complex I activity, dose-response data [25]: 70.628 and 77.319 and 76.050
- activity at 3 µM [25]: 79.7%
- activity at 15 µM (dose 15 µM, Mean of replicates): 32.6%
- Complex I activity, dose-response data [26]: 30.650 and 32.968 and 29.935
- activity at 15 µM [26]: 37%
- activity at 37.5 µM [27]: 10.6%
- Complex I activity, dose-response data [28]: 11.252 and 10.388 and 9.191
- activity at 37.5 µM [28]: 11.7%
- activity at 75 µM (dose 75 µM, Mean of replicates): 3.69%
- Complex I activity, dose-response data [29]: 3.180 and 4.662 and 2.397
- activity at 75 µM [29]: 4.5%
- IC50: 9.52 µM

Compound: CC(C)(C)c1ccc(CCOc2ncnc3ccccc23)cc1 [Fenazaquin, reference compound]
- IC50: 0.021 µM
